Literature values, collected in PubChem BioAssay AID1259409 (Chemical Carcinogenesis Research Information System (CCRIS), 2018).

Test system: rodent chemically induced tumor inhibition, incidence and multiplicity
Experiment: CCRIS tumor inhibitor studies

O=c1c(-c2ccc(O)cc2)coc2cc(O)cc(O)c12
tumour outcome (control, treated, inhibition, significance) (Carcinogen: 7,12-DIMETHYLBENZ[A]ANTHRACENE (57-97-6), Dose [Inhibitor]: 140 MG/KG DIET FOR 17 WKS (STUDY DURATION: 17 WKS), Route [Inhibitor]: DIET, Species: RAT, Strain/Sex: SPRAGUE-DAWLEY/FEMALE (20,18)/(20,19), Target Tissue: Type of Lesion: MAMMARY, Dose [Carcinogen]: 12.5 MG ONCE 1 WK AFTER START OF DIET (STUDY DURATION: 17 WKS)): 95%, 85%, 11%, p=0.408 | tumour outcome (control, treated, inhibition, significance) (Carcinogen: 7,12-DIMETHYLBENZ[A]ANTHRACENE [57-97-6], Dose [Inhibitor]: 20 UG/L IN 0.05 ML PEANUT OIL 2X/WK FOR 2 WK BEGINNING AT 7 D OF AGE (STUDY DURATION: 24 WK), Route [Inhibitor]: SUBCUTANEOUS, Species: RAT, Strain/Sex: SPRAGUE-DAWLEY/FEMALE, Target Tissue: Type of Lesion: MAMMARY GLAND: TUMOR, Dose [Carcinogen]: 10 MG IN 1 ML PEANUT OIL ONCE AT 45 D OF AGE (STUDY DURATION: 24 WK), Promoter: NONE): 17/30 (57%), 13/30 (43%), 25%, not significant | tumour outcome (control, treated, inhibition, significance) (Carcinogen: 7,12-DIMETHYLBENZ[A]ANTHRACENE, 57-97-6, Dose [Inhibitor]: 0, 25 PPM IN DIET FOR 50 WK BEGINNING 1 WK POST-CARCINOGEN DOSE (STUDY DURATION: 51 WK), Route [Inhibitor]: ORAL, Species: RAT, Strain/Sex: SPRAGUE-DAWLEY/FEMALE, Target Tissue: Type of Lesion: OVARY: ADENOCARCINOMA, Dose [Carcinogen]: 0.01 ML OF 0.5% DMBA IN OLIVE OIL INTO THE LEFT OVARY, ONCE, UNDER PENTOBARBITAL ANESTHESIA, Promoter: NONE USED): 7/20 (35%), 1/20 (5%), 86%, p=0.02 | tumour outcome (control, treated, inhibition, significance) (Carcinogen: 7,12-DIMETHYLBENZ[A]ANTHRACENE, 57-97-6, Dose [Inhibitor]: 0, 250 PPM IN DIET FOR 50 WK BEGINNING 1 WK POST-CARCINOGEN DOSE (STUDY DURATION: 51 WK), Route [Inhibitor]: ORAL, Species: RAT, Strain/Sex: SPRAGUE-DAWLEY/FEMALE, Target Tissue: Type of Lesion: OVARY: ADENOCARCINOMA, Dose [Carcinogen]: 0.01 ML OF 0.5% DMBA IN OLIVE OIL INTO THE LEFT OVARY, ONCE, UNDER PENTOBARBITAL ANESTHESIA, Promoter: NONE USED): 7/20 (35%), 0/20 (0%), 100%, p=0.0042 | tumour outcome (control, treated, inhibition, significance) (Carcinogen: 7,12-DIMETHYLBENZ[A]ANTHRACENE, 57-97-6, Dose [Inhibitor]: 0, 500 UG/G BW ONCE ON DAYS 16, 18 AND 20 OF AGE (STUDY DURATION: 200 D), Route [Inhibitor]: SUBCUTANEOUS, Species: RAT, Strain/Sex: SPRAGUE-DAWLEY/FEMALE, Target Tissue: Type of Lesion: MAMMARY GLAND: TUMOR, Dose [Carcinogen]: 80 UG/G BW IN SESAME OIL ONCE AT 50 DAYS OF AGE, Promoter: NONE USED): 92%, 85%, 8%, not significant | outcome (Carcinogen: Dimethylbenzanthracene, 57-97-6, Dose [Inhibitor]: 10 mg/kg bw/day, suspended in distilled water daily by gavage, dose duration 12 wk, study duration 18 wk, Route [Inhibitor]: Oral, Species: Hamster, Strain/Sex: Syrian golden/Male, Target Tissue: Type of Lesion: Oral cavity, Dose [Carcinogen]: 100 ul of 0.5% DMBA in mineral oil applied with a paint brush 3 times/wk for 6 wk, Promoter: None): 15/28 (53%), 11/27 (40.7%), not significant | tumour outcome (control, treated, inhibition, significance) (Carcinogen: N-METHYL-N'-NITRO-N-NITROSOGUANADINE, 70-25-7, Dose [Inhibitor]: 0, 15 MG/KG 1/2 D FOR 26 WK BEGINNING 1 WK POST CARCINOGEN TREATMENT (STUDY DURATION: 52 WK), Route [Inhibitor]: SUBCUTANEOUS, Species: RAT, Strain/Sex: WISTAR/MALE, Target Tissue: Type of Lesion: STOMACH: ADENOCARCINOMA, Dose [Carcinogen]: 25 UG/ML IN DRINKING WATER FOR 25 WK, Promoter: SODIUM CHLORIDE, 7647-14-5): 18/20 (90%), 12/20 (60%), 33%, not significant | tumour outcome (control, treated, inhibition, significance) (Carcinogen: N-METHYL-N-NITROSOUREA, 684-93-5, Dose [Inhibitor]: 0, 1 MG/30 G BW 1/4 WK FOR 25 WK BEGINNING 5 WK POST CARCINOGEN TREATMENT (STUDY DURATION: 30 WK), Route [Inhibitor]: SUBCUTANEOUS, Species: MOUSE, Strain/Sex: ICR/FEMALE, Target Tissue: Type of Lesion: UTERUS (LEFT): ADENOCARCINOMA, Dose [Carcinogen]: 0.1 MG/KG BW INJECTED INTO LEFT UTERINE TUBE ONCE): 3/26 (11%), 0/15 (0%), 100%, not significant | tumour outcome (control, treated, inhibition, significance) (Carcinogen: N-METHYL-N-NITROSOUREA, 684-93-5, Dose [Inhibitor]: 0, 1 MG/30 G BW 1/4 WK FOR 25 WK BEGINNING 5 WK POST CARCINOGEN TREATMENT (STUDY DURATION: 30 WK), Route [Inhibitor]: SUBCUTANEOUS, Species: MOUSE, Strain/Sex: ICR/FEMALE, Target Tissue: Type of Lesion: UTERUS (LEFT): ADENOCARCINOMA, Dose [Carcinogen]: 0.1 MG/KG BW INJECTED INTO LEFT UTERINE TUBE ONCE, Promoter: 17-BETA-ESTRADIOL, 50-28-2): 8/24 (33%), 0/19 (0%), 100%, p<0.01 | tumour outcome (control, treated, inhibition, significance) (Carcinogen: N-METHYL-N;-NITRO-N-NITROSOGUANIDINE, 70-25-7, Carcinogen: N-METHYL-N;-NITRO-N-NITROSOGUANIDINE, 70-25-7, Dose [Inhibitor]: 0, 30 MG/KG 1/2 FOR 26 WK BEGINNING 1 WK POST CARCINOGEN TREATMENT (STUDY DURATION: 52 WK), Route [Inhibitor]: SUBCUTANEOUS, Species: RAT, Strain/Sex: WISTAR/MALE, Target Tissue: Type of Lesion: STOMACH: ADENOCARCINOMA, Dose [Carcinogen]: 25 UG/ML IN DRINKING WATER FOR 25 WK, Promoter: SODIUM CHLORIDE, 7647-14-5): 18/20 (90%), 7/19 (37%), 59%, p<0.05

CCCCC1OC(=O)c2ccccc21 (stereo not drawn)
tumour outcome (control, treated, inhibition, significance) (Carcinogen: BENZO[A]PYRENE, 50-32-8, Dose [Inhibitor]: 0, 20 MG 3/WK FOR 4 WK ON DAYS OTHER THAN THE CARCINOGEN TREATMENT (STUDY DURATION: 20 WK), Route [Inhibitor]: GAVAGE, Species: MOUSE, Strain/Sex: STRAIN-A/FEMALE, Target Tissue: Type of Lesion: FORESTOMACH: TUMOR, Dose [Carcinogen]: 1 MG IN 0.2 ML COTTONSEED OIL 2/WK FOR 4 WK, Promoter: NONE USED): 13/19 (68%), 6/20 (30%), 56%, p<0.005

Oc1cccc(O)c1O
tumour outcome (control, treated, inhibition, significance) (Carcinogen: BENZO[A]PYRENE, 50-32-8, Dose [Inhibitor]: 5 MG IN 0.1 ML ACETONE 3/WK ADMINISTERED SIMULTANEOUSLY WITH CARCINOGEN FOR DURATION OF STUDY (STUDY DURATION: 440 D), Route [Inhibitor]: DERMAL, Species: MOUSE, Strain/Sex: ICR/FEMALE, Target Tissue: Type of Lesion: SKIN: PAPILLOMA, Dose [Carcinogen]: 5 UG IN 0.1 ML ACETONE THAT ALSO CONTAINED AGENT 3/WK, Promoter: NONE USED): 16/50 (32%), 40/50 (80%), -150%, not calculated | tumour outcome (control, treated, inhibition, significance) (Carcinogen: BENZO[A]PYRENE, 50-32-8, Dose [Inhibitor]: 5 MG IN 0.1 ML ACETONE 3/WK ADMINISTERED SIMULTANEOUSLY WITH CARCINOGEN FOR DURATION OF STUDY (STUDY DURATION: 440 D), Route [Inhibitor]: DERMAL, Species: MOUSE, Strain/Sex: ICR/FEMALE, Target Tissue: Type of Lesion: SKIN: SQUAMOUS CARCINOMA, Dose [Carcinogen]: 5 UG IN 0.1 ML ACETONE THAT ALSO CONTAINED AGENT 3/WK, Promoter: NONE USED): 12/50 (24%), 33/50 (66%), -175%, not calculated
